In PMC5333395, “Assessing histone demethylase inhibitors in cells: lessons learned” (Epigenetics & Chromatin, 2017):

Tests used:
KDM4A = molecular target: T1, KDM4A (Homo sapiens, UniProt O75164); test: AlphaScreen in vitro demethylase assay; format: biochemical; conditions: IC50 ± SD (number of replicates)
T1 sequence (O75164 1-1064): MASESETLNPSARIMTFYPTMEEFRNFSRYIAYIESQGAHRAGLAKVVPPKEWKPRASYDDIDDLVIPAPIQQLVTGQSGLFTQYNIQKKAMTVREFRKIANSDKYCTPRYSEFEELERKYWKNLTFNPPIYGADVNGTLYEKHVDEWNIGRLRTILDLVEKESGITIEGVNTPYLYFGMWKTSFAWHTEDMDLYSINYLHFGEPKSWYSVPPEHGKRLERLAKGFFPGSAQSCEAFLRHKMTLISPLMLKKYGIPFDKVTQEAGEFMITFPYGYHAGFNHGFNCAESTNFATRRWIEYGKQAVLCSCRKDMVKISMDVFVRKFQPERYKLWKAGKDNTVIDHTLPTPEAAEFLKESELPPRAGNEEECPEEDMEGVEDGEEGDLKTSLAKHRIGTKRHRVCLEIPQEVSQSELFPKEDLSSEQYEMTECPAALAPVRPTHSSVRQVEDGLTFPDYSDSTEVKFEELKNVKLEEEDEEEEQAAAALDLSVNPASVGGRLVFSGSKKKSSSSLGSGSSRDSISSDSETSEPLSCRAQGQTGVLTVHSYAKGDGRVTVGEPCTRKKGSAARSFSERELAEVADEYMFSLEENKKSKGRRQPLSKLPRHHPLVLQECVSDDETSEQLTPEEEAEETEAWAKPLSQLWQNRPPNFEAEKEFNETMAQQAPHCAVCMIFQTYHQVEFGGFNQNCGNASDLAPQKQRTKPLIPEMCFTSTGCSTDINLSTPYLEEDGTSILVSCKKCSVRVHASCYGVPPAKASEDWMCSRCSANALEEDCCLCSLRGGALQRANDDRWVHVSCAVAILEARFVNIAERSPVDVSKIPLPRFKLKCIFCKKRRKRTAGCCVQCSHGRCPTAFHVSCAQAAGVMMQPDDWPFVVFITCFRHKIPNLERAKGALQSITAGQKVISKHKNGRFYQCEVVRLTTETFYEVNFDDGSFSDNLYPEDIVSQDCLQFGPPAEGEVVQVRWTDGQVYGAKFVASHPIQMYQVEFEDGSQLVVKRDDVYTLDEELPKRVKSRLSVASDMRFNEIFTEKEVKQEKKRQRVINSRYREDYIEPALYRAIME
Experimental: (§1) IC50 values were determined as previously described. The following amendments were made to the protocol for carrying out 2-OG competition assays.

KDM4C = molecular target: T2, KDM4C (Homo sapiens, UniProt Q9H3R0); test: AlphaScreen in vitro demethylase assay; format: biochemical; conditions: AlphaScreen; IC50 ± SD (number of replicates); read-out: KDM4C IC50, in vitro
T2 sequence (Q9H3R0 1-1056): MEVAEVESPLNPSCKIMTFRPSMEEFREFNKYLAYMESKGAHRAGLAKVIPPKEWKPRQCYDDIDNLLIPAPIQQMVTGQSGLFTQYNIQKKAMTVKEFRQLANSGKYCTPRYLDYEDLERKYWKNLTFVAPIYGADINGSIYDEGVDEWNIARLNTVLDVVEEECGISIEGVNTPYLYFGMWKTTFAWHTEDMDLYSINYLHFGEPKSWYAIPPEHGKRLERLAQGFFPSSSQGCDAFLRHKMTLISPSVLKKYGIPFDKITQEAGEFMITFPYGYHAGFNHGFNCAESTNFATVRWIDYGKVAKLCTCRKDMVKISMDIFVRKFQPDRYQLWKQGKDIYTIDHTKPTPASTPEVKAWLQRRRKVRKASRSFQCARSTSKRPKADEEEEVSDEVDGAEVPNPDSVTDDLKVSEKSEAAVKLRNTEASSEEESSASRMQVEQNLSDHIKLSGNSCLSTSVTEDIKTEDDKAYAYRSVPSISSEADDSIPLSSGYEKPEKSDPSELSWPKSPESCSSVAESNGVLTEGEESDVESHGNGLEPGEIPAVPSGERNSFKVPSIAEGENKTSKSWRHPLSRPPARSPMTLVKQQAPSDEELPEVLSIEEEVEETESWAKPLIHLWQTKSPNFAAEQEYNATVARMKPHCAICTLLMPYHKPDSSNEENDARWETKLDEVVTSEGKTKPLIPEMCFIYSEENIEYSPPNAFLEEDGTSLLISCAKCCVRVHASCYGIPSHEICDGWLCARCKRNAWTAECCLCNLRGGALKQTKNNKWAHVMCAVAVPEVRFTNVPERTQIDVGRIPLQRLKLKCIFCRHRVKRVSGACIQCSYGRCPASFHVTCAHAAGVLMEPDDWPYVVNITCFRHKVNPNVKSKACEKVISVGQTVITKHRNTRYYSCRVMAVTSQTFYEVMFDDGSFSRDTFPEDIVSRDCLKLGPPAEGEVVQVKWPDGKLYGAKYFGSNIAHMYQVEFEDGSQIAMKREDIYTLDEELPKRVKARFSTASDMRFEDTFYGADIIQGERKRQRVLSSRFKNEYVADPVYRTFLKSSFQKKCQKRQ
Experimental: as §1

[1] = test system: Caco-2 human colon carcinoma cell line; test: Caco-2 permeability; format: in vitro ADME; conditions: P app
Experimental: P app (apparent permeability) was determined in the Caco-2 human colon carcinoma cell line essentially as described in [11].

Compound	IC50 (KDM4A) [µM]	IC50 (KDM4C) [µM]	Caco-2 (A to B flux) [1] [cm/s]
CPI-455	31	11 ± 2.3	5.21e-06
O=c1[nH]cnc2c(-n3cc(CCN4CCC(c5cccc(Cl)c5)CC4)cn3)cccc12 [CCT366293, 8-(4-(2-(4-(3-Chlorophenyl)piperidin-1-yl)ethyl)-1H-pyrazol-1-yl)quinazolin-4(3H)-one]	> 10		
CCN(CCN(C)C)C(=O)CNCc1cc(C(=O)O)ccn1 [KDOAM-20]	0.67 ± 0.23	0.19 ± 0.081	
CCOC(=O)c1ccnc(CNCC(=O)N(CC)CCN(C)C)c1 [KDOAM-21]	11 ± 4.5	2.8 ± 1.3	5.32e-06
